Source: patent US10975055B2, “Inhibitors of interleukin-1 receptor-associated kinases and uses thereof” (Dana-Farber Cancer Institute, Inc., priority 2016, dated 2021)
Where two headings read alike, the source gives them in different places.

Columns and labels:
IRAK4 = biological target: T1, IRAK4 (Homo sapiens, UniProt Q9NWZ3); assay: IRAK4 Z-lyte kinase assay (FRET peptide substrate); type: biochemical
T1 sequence (Q9NWZ3 1-460): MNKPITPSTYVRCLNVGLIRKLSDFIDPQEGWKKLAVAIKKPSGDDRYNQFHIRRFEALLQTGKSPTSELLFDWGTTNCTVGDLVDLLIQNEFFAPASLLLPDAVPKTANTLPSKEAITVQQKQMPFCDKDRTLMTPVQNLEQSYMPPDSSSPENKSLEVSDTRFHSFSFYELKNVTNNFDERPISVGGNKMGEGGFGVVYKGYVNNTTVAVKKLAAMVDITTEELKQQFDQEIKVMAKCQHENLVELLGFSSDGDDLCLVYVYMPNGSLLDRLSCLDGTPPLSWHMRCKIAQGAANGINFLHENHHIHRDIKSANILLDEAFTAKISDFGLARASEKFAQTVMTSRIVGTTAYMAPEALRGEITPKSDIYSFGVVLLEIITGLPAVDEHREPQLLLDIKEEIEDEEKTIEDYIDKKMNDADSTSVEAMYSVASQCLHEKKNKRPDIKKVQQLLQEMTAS
Protocol: (§1) Select compounds described herein were evaluated for structure-activity analyses. For IRAK1, the following Alexa kinase assay procedure was followed: in the absence of an inhibitor, ADP formed by a kinase reaction will displace an Alexa Fluor 647 dye-labeled ADP tracer from an Eu3+-labeled anti-ADP antibody, resulting in a decrease in the time-resolved fluorescence resonance energy transfer (TR-FRET) signal. In the presence of an inhibitor, the amount of ADP formed by the kinase reaction is reduced, and the resulting intact antibody-tracer interaction produces a high TR-FRET signal. For IRAK4, the following Z-lyte kinase assay procedure was followed: phosphorylation-dependent protease susceptibility of a double-labeled peptide substrate is detected using fluorescence resonance energy transfer (FRET).

IRAK1 = IRAK1 (Homo sapiens, UniProt P51617); assay: IRAK1 Alexa kinase assay (TR-FRET, ADP tracer); type: biochemical
Chain of IRAK1 (P51617 whole entry): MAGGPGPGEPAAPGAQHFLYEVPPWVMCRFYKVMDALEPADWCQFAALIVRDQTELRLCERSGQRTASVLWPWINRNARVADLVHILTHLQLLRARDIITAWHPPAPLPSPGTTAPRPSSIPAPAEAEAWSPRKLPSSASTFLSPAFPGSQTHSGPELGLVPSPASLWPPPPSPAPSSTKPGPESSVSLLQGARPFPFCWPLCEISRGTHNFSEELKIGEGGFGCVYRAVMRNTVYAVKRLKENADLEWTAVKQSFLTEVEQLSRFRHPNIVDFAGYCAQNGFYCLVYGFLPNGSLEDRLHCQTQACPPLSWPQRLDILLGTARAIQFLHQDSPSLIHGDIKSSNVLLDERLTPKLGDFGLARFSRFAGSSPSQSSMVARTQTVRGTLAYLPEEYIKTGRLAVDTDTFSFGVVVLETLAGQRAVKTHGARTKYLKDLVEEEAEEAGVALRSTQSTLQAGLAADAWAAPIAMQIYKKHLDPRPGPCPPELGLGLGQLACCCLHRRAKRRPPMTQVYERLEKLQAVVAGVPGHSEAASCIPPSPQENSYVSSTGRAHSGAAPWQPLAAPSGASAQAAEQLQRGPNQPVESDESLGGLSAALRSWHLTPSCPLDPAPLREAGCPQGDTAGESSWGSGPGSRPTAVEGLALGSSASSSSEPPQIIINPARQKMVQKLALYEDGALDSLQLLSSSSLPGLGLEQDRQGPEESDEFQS
Protocol: as §1

[1] = system: Waldenstrom's, DLBCL, and Burkitt Lymphoma cell lines; assay: Cellular data for covalent IRAK1 inhibitors: cell killing; type: cell-based
In vivo PK studies = settings: dosed IV
IRAK1 cysteine 302 = IRAK1 cysteine 302 (Homo sapiens, UniProt P51617); assay: Mass spec labelling studies; type: binding
Chain of IRAK1 cysteine 302 (P51617 whole entry): as above

[2] = system: MYD88 mutated WM and ABC-DLBCL cells; assay: Synergism evaluation with Ibrutinib: tumor cell killing; type: cell-based; settings: for Combination Index (CI): synergism evaluation with Ibrutinib
NF-κB activation = NF-κB activation under combination with Ibrutinib; type: cell-based
[3] = system: MYD88 mutated WM and ABC DLBCL cells; assay: Antiproliferative effects, single agent; type: cell-based
[4] = system: WM patients' bone marrow LPCs; assay: Tumor cell killing in WM patients' bone marrow LPCs; type: cell-based, human; settings: combination with BTK inhibitor Ibrutinib
[5] = system: kinome (off-targets YSK4 and MEK3); assay: Kinome selectivity (kinome tree); type: biochemical

Compound | IC50 (IRAK4; Table 1, read-out: IC50 IRAK4) [nM] | IC50 (IRAK4; read-out: IRAK4 IC50) [nM] | IC50 (IRAK1; read-out: IRAK1 IC50) [nM] | IC50 (IRAK1; Table 1, read-out: IC50 IRAK1) [nM] | also measured
C=CC(=O)Nc1cccc(C(=O)Nc2ccc(NC(=O)c3cccc(-c4cnn(C)c4)n3)cc2)c1 [JH-XIII-80-2, N-(4-(3-acrylamidobenzamido)phenyl)-6-(1-methyl-1H-pyrazol-4-yl)picolinamide] | > 10000 | > 10000 | 67 | – | –
N-(4-(4-acrylamidobenzamido)phenyl)-[2,3′-bipyridine]-6-carboxamide [JH-XIII-77] | > 10000 | > 10000 | 80 | – | –
C=CC(=O)Nc1cccc(C(=O)Nc2ccc(NC(=O)c3cccc(-c4ccn[nH]4)n3)cc2)c1 [JH-X-119-01] | > 10000 | – | 9.3 | – | cell killing ED50 [1]: micromolar; Cmax (In vivo PK studies): 9.95 µM; clearance (In vivo PK studies): 18.8 mL/min/kg; half-life (In vivo PK studies): 1.61 h; labelling of IRAK1 (mass spec) (IRAK1 cysteine 302): irreversibly labelled IRAK1 at cysteine 302; inhibition of IRAK4 (IRAK4; at concentrations up to 10 μM): no inhibition; tumor cell killing, combination with Ibrutinib ([2]; combination with Ibrutinib, MYD88 mutated WM and ABC-DLBCL cells): synergistic tumor cell killing; Combination Index (CI) [2]: < 1.0; NF-κB activation, combination with Ibrutinib (NF-κB activation): suppression; antiproliferative effects [3]: antiproliferative effects; tumor cells killing in WM patients' bone marrow LPCs [4]: more robust tumor cells killing; kinome selectivity: off-target inhibition [5]: only two kinases, YSK4 and MEK3
C=CC(=O)N[C@H]1CC[C@H](C(=O)Nc2ccc(NC(=O)c3cccc(-c4ccn[nH]4)n3)cc2)CC1 [JH-XII-205-1, N-(4-((1r,4r)-4-acrylamidocyclohexane-1-carboxamido)phenyl)-6-(1H-pyrazol-5-yl)picolinamide] | – | 1110 | 88 | – | –
C=CC(=O)Nc1cccc(C(=O)Nc2ccc(NC(=O)c3cccc(-c4cn[nH]c4)n3)cc2)c1 [JH-XIII-80-3, N-(4-(3-acrylamidobenzamido)phenyl)-6-(1H-pyrazol-4-yl)picolinamide] | > 10000 | > 10000 | 22 | – | –
C=CC(=O)N[C@H]1CCC[C@@H](NC(=O)c2ccc(NC(=O)c3cccc(-c4ccn[nH]4)n3)cc2)C1 [JH-XII-200-2, N-(4-(((1R,3S)-3-acrylamidocyclohexyl)carbamoyl)phenyl)-6-(1H-pyrazol-5-yl)picolinamide] | – | 648 | 24 | – | –
C=CC(=O)Nc1cccc(C(=O)Nc2cccc(NC(=O)c3cccc(-c4ccn[nH]4)n3)c2)c1 [JH-X-119-04] | > 10000 | – | – | 25 | –
C=CC(=O)NC12CC(NC(=O)c3ccc(NC(=O)c4cccc(-c5ccn[nH]5)n4)cc3)(C1)C2 [JH-XII-200-3, N-(4-((3-acrylamidobicyclo[1.1.1]pentan-1-yl)carbamoyl)phenyl)-6-(1H-pyrazol-5-yl)picolinamide] | – | 607 | 51 | – | –

Further lines, with some results ahead:

IC50 (IRAK4; Table 1, read-out: IC50 IRAK4) [nM] | IC50 (IRAK4; read-out: IRAK4 IC50) [nM] | IC50 (IRAK1; read-out: IRAK1 IC50) [nM] | IC50 (IRAK1; Table 1, read-out: IC50 IRAK1) [nM] | Compound | also measured
> 10000 | > 10000 | 40 | – | C=CC(=O)Nc1cccc(-c2cn(-c3ccc(NC(=O)c4cccc(-c5ccn[nH]5)n4)cc3)nn2)c1 [JH-XIII-96-2, N-(4-(4-(3-acrylamidophenyl)-1H-1,2,3-triazol-1-yl)phenyl)-6-(1H-pyrazol-5-yl)picolinamide] | –
> 10000 | > 10000 | 72 | – | C=CC(=O)N[C@H]1CCC[C@@H](C(=O)Nc2ccc(NC(=O)c3cccc(-c4ccn[nH]4)n3)cc2)C1 [JH-XII-205-2, N-(4-((1R,3S)-3-acrylamidocyclohexane-1-carboxamido)phenyl)-6-(1H-pyrazol-5-yl)picolinamide] | –
> 10000 | – | – | 51 | CN(C)C/C=C/C(=O)Nc1cccc(C(=O)Nc2ccc(NC(=O)c3cccc(-c4ccn[nH]4)n3)cc2)c1 [JH-X-198] | Combination Index (CI) [2]: < 1.0
– | 154 | 46 | – | C=CC(=O)N[C@H]1CC[C@H](NC(=O)c2ccc(NC(=O)c3cccc(-c4ccn[nH]4)n3)cc2)CC1 [JH-XII-200-1, N-(4-(((1r,4r)-4-acrylamidocyclohexyl)carbamoyl)phenyl)-6-(1H-pyrazol-5-yl)picolinamide] | –
> 10000 | – | – | 259 | CCC(=O)Nc1cccc(C(=O)Nc2ccc(NC(=O)c3cccc(-c4ccn[nH]4)n3)cc2)c1 [JH-X-159] | –
> 10000 | > 10000 | 12 | – | C=CC(=O)Nc1cccc(C(=O)Nc2ccc(NC(=O)c3cccc(-c4cnoc4)n3)cc2)c1 [JH-XIII-80-1, N-(4-(3-acrylamidobenzamido)phenyl)-6-(isoxazol-4-yl)picolinamide] | –
> 10000 | – | – | 47 | C=CC(=O)Nc1ccc(C(=O)Nc2ccc(NC(=O)c3cccc(-c4ccn[nH]4)n3)cc2)cc1 [JH-X-119-02] | –
– | – | – | 55 | C=CC(=O)Nc1ccc(C(=O)Nc2cccc(NC(=O)c3cccc(-c4ccn[nH]4)n3)c2)cc1 [JH-X-119-03] | –
